The source of these data is article PMC7677930, “In Vitro and In Silico ADME-Tox Profiling and Safety Significance of Multifunctional Monoamine Oxidase Inhibitors Targeting Neurodegenerative Diseases” (ACS Chemical Neuroscience, 2020).

Molecules are shown by their SMILES.

A short description of data set [1]: metabolic stability, 2 h incubation with human liver microsomes, UPLC-MS. In kind it is in vitro ADME. From the text: The metabolic stability of a compound is an important factor that determines its pharmacokinetics and its potential as a drug candidate. Drugs are being metabolized in a variety of tissues including lungs, kidneys, or intestinal walls, but the liver plays an essential role in this process.
Then, the UPLC/MS analyses were done by using a Waters ACQUITY TQD system with the TQ Detector (Waters, Milford, MA, USA). The in silico prediction of the most probable sites of metabolism was done by ADMET Predictor, ver. […]
7.4) at 37 °C in the presence of NADPH Regeneration System (Promega, Madison, WI, USA). […]

Data set [2] has as its system Huh7 cells. The data set is described as follows: MTT cell viability assay on Huh7. The class given is cell-based, human. The following applies: for concentration at which compound began to elicit toxicity: Huh7, MTT, 24 h, 1-300 μM tested; for toxicity compared with ASS234: Huh7, MTT (Figure 5A). The protocol:
(§1) The human hepatoma cell line (Huh7) was purchased from the American Type Culture Collection (ATCC, Manassas, VA, USA). The generation and characterization of the immortalized mouse hepatocyte cell line WTIIB has been previously described.[24] Cell viability was measured by the quantitative colorimetric MTT (3-[4,5-dimethylthiazol-2-yl]-2,5 diphenyl tetrazolium bromide) assay as previously described, and triarylmethane dye (violet) assay following the protocol adapted from Feoktistova et al.[25] After the incubation period with the compounds, MTT reagent was added to each well at a final concentration of 0.5 mg/mL. The plate was placed in a humidified incubator at 37 °C with 5% CO2 and 95% air for 2 h. Then, the precipitated formazan was dissolved with dimethyl sulfoxide (DMSO) and the colorimetric determination of MTT was measured in the spectrophotometer at 540 nm wavelength. Nontreated cells were considered controls and were taken as 100% viability.

Data set [3] has as its system WTIIB cells. The data set is described as follows: MTT cell viability assay on WTIIB. The class given is cell-based, mouse. The following applies: for concentration at which compound began to elicit toxicity: MTT, 24 h, 1-300 μM tested. How it is done:
as §1

Data set [4] has as its system Huh7 cells. The data set can be described thus: crystal violet cell viability assay on Huh7. The class given is cell-based, human. The settings on record: for concentration at which compound began to elicit toxicity: Huh7, crystal violet, 24 h, 1-300 μM tested; for toxicity compared with ASS234: Huh7, crystal violet (Figure 5C). How it is done:
as §1
(§2) To perform the crystal violet assay, wells were washed twice in PBS and cells were fixed with 100 μL of crystal violet (Sigma-Aldrich, Madrid, Spain) solution at 0.2% prepared in ethanol. Plates were incubated for 20 min at room temperature in a bench rocker. Next, wells were washed four times with distilled water, and then the plate was inverted gently to remove any remaining liquid. The plate was dried at room temperature for at least 2 h and attached cells were resuspended in SDS 1% for 30 min in a bench rocker. The optical density was measured in the spectrophotometer at 540 nm wavelength. Nontreated cells were considered controls and were taken as 100% viability.

Data set [5] deals with WTIIB cells. The data set can be described thus: crystal violet cell viability assay on WTIIB. The class given is cell-based, mouse. The settings on record: for concentration at which compound began to elicit toxicity: crystal violet, 24 h, 1-300 μM tested; for toxicity compared with ASS234: crystal violet (Figure 5D). How it is done: as §1, §2
A short description of data set [6]: precipitation during incubation in MTS assay. In kind it is physicochemical. The following applies: 72 h. How it is done: (A) Concentration–response on HEK-293 cells. (B) Concentration–response on HepG2 cells. Statistical significance was evaluated by one-way ANOVA, followed by Bonferroni’s comparison test (****p < 0.0001). DX, doxorubicin; CCCP, carbonyl cyanide 3-chlorophenyl […]. ASS234 precipitated at 100 μM during incubation.
(§3) Cytotoxicity and hepatotoxicity were estimated using the human embryonic kidney HEK-293 cell line (ATCC CRL-1573) and hepatoma HepG2 (ATCC HB-8065) cell line. The CellTiter 96 Aqueous Non-Radioactive Cell Proliferation Assay (MTS) was purchased from Promega (Madison, WI, USA) and performed according to the manufacturer’s protocol. […] The antiproliferative drug doxorubicin (DX) (1 μM) and mitochondrial toxin carbonyl cyanide 3-chlorophenyl-hydrazone (CCCP) (10 μM, only in hepatotoxicity assay) were used as positive controls (purchased from Sigma-Aldrich, St. Louis, MO, USA).

The next data set deals with hAChE. The following applies: cited from earlier work.
Another data set deals with hBuChE. The following applies: cited from earlier work.
A further data set deals with hS1R. The settings on record: read-out: KihS1R; cited from earlier work.
The next data set relates to MAO A. The settings on record: Figure 1; cited from earlier work.
In another data set the test system is MAO B. The settings on record: Figure 1; cited from earlier work.
The next data set relates to HEK-293 cells. The data set can be described thus: MTS cell viability assay on HEK-293. The class given is cell-based, human. The settings on record: HEK-293, MTS, 72 h; tested at 1, 10, 50, 100 μM. The protocol:
as §3

Another data set concerns HepG2 cells. The data set is described as follows: MTS cell viability assay on HepG2. The class given is cell-based, human. The settings on record: 72 h, tested at 1, 10, 50, 100 μM. How it is done:
as §3

For data set [7], the target named is histamine H3 receptor (H3R). The following applies: cited from earlier work.
Data set [8] relates to SH-SY5Y human neuroblastoma cells. More on the design: method as in PMID 28861918. The following applies: cited from earlier work.

`C#CCN(C)Cc1cc2cc(OCCCC3CCN(Cc4ccccc4)CC3)ccc2n1C` [ASS234]: the “parent compound detected after incubation with HLMs” value (from here on “parent compound detected”) in data set [1] is “the compound was not detected”. Moreover, the “concentration at which compound began to elicit toxicity” value with Huh7 cells [2], with WTIIB cells [3], with Huh7 cells [4] and in the data set on WTIIB cells [5] was at least 30 µM each time. In addition, in [6], the “concentration at which compound precipitated during incubation” value is 100 µM. The 50% inhibitory concentration (IC50) in the data set on hAChE was 810 nM; in the data set with hBuChE, 1820 nM; in the data set with MAO A, 5 nM; in the data set with MAO B, 177 nM. For the same compound, the Ki on hS1R was 3 nM.

`C#CCNCc1cc2cc(OCc3ccccc3)ccc2[nH]1` [PF9601N, N-(2-Propynyl)-2-(5-Benzyloxy-Indolyl) Methylamine]: in [1], the “parent compound detected” value came to 95%. For the same compound, the IC50 in the data set on MAO A is 1250 nM; in the data set with MAO B it was 22 nM.

`C#CCN(C)Cc1cc2cc(OCCCN3CCCCC3)ccc2n1C` [contilisant]: in [1], the “parent compound detected” value is on record as 97%. Besides, the “concentration range not affecting cell viability” value in the data set with HEK-293 cells is listed as “up to 10 μM”; in the data set with HepG2 cells, “up to 50 μM”; in the data set on Huh7 cells [2] (Huh7, abstract, assay not specified (MTT / crystal violet)), “up to 30 μM”. Moreover, the “toxicity compared with ASS234” value is reported as “less toxic than ASS234” in the data set with Huh7 cells [2] (30 μM); “more toxic than ASS234” with Huh7 cells [2] (300 μM); “more toxic than ASS234” in the data set with WTIIB cells [3] (300 μM, MTT (Figure 5B)); “less toxic than ASS234” with Huh7 cells [4] (30 μM); “more toxic than ASS234” in the data set on Huh7 cells [4] (300 μM); “less toxic than ASS234” in the data set on WTIIB cells [5] (100 μM). Besides, the “toxicity compared with ASS234” value in the data set on WTIIB cells [5] (300 μM) is reported as “more toxic than ASS234”. Besides, the “concentration at which compound began to elicit toxicity” value with Huh7 cells [2] is at least 30 µM; in the data set with WTIIB cells [3], 100 µM; in the data set on Huh7 cells [4], at least 30 µM; in the data set with WTIIB cells [5] it was 100 µM. The concentration for half-maximal inhibition (IC50) in the data set with hBuChE is 1690 nM; with MAO B it was 78 nM. For the same compound, the Ki on hS1R was 65 nM; in data set [7] it was 11 nM. In addition, the “effective concentration used in neuroprotection experiments” value in data set [8] was 0.3 to 3 µM.

As to `C#CCN(C)[C@H](C)Cc1ccccc1` [selegiline, reference compound], the “fraction of compound metabolized by HLMs” value in [1] is on record as “about 54%”.
